Measured values reported in PubChem BioAssay (NCI).
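Each compound was tested at five concentrations against cells in 96-well plates for 48 hours. GI50: concentration for 50% inhibition of growth. TGI: total growth inhibition.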

What was measured:
Experiment in all cases: NCI anticancer screen, dose series, 48 h
[1] = tested on: M14 melanoma
[2] = tested on: DU-145 prostate
[3] = tested on: OVCAR-4 ovarian
[4] = tested on: HCT-116 colon
[5] = tested on: HOP-62 NSCLC
[6] = tested on: ACHN renal
[7] = tested on: NCI-H23 lung
[8] = tested on: U251 CNS
[9] = tested on: 786-0 renal
[10] = tested on: NCI-H522 lung
[11] = tested on: HCT-15 colon
[12] = tested on: SN12C renal
[13] = tested on: UACC-62 melanoma
[14] = tested on: SF-268 CNS
[15] = tested on: SK-MEL-5 melanoma
[16] = tested on: A498 renal
[17] = tested on: UACC-257 melanoma
[18] = tested on: KM12 colon
[19] = tested on: OVCAR-8 ovarian
[20] = tested on: SNB-19 CNS
[21] = tested on: RPMI-8226 leukemia
[22] = tested on: T-47D breast
[23] = tested on: HCC-2998 colon
[24] = tested on: HS 578T breast
[25] = tested on: NCI-H460 lung
[26] = tested on: CCRF-CEM leukemia
[27] = tested on: A549 NSCLC
[28] = tested on: SK-OV-3 ovarian
[29] = tested on: SF-539 CNS
[30] = tested on: TK-10 renal
[31] = tested on: MCF7 breast
[32] = tested on: BT-549 breast
[33] = tested on: NCI/ADR-RES ovarian
[34] = tested on: SW-620 colon
[35] = tested on: LOX IMVI melanoma
[36] = tested on: SF-295 CNS
[37] = tested on: SK-MEL-2 melanoma
[38] = tested on: RXF 393 renal
[39] = tested on: MALME-3M melanoma
[40] = tested on: HT29 colon
[41] = tested on: IGROV1 ovarian
[42] = tested on: HOP-92 NSCLC
[43] = tested on: HL-60(TB) leukemia
[44] = tested on: COLO 205 colon
[45] = tested on: UO-31 renal
[46] = tested on: MDA-MB-435
[47] = tested on: NCI-H226 lung
[48] = tested on: MDA-MB-231 breast
[49] = tested on: MOLT-4 leukemia
[50] = tested on: OVCAR-5 ovarian
[51] = tested on: OVCAR-3 ovarian
[52] = tested on: CAKI-1 renal
[53] = tested on: EKVX NSCLC
[54] = tested on: SR leukemia

Cc1cc(C)c(S(=O)(=O)N2CCN(c3cc4c(cc3F)c(=O)c(C(=O)O)cn4C3CC3)CC2)c(C)c1
GI50 [1]: 4.69 µM
TGI [1]: > 100 µM
GI50 [2]: 3.4 µM
TGI [2]: > 100 µM
GI50 [3]: 2.37 µM
TGI [3]: > 100 µM
GI50 [4]: 2.98 µM
TGI [4]: > 100 µM
GI50 [5]: 3.65 µM
TGI [5]: > 100 µM
GI50 [6]: 2.46 µM
TGI [6]: > 100 µM
GI50 [7]: 3.41 µM
TGI [7]: > 100 µM
GI50 [8]: 2.89 µM
TGI [8]: > 100 µM
GI50 [9]: 4.08 µM
TGI [9]: > 100 µM
GI50 [10]: 2.8 µM
TGI [10]: > 100 µM
GI50 [11]: 2.55 µM
TGI [11]: > 100 µM
GI50 [12]: 2.61 µM
TGI [12]: > 100 µM
GI50 [13]: 2.43 µM
TGI [13]: > 100 µM
GI50 [14]: 3.96 µM
TGI [14]: > 100 µM
GI50 [15]: 3.03 µM
TGI [15]: > 100 µM
GI50 [16]: 2.37 µM
TGI [16]: > 100 µM
GI50 [17]: > 100 µM
TGI [17]: > 100 µM
GI50 [18]: 3.38 µM
TGI [18]: > 100 µM
GI50 [19]: 2.87 µM
TGI [19]: > 100 µM
GI50 [20]: 2.56 µM
TGI [20]: > 100 µM
GI50 [21]: 2.34 µM
TGI [21]: 6.83 µM
GI50 [22]: 4.81 µM
TGI [22]: > 100 µM
GI50 [23]: 5.37 µM
TGI [23]: > 100 µM
GI50 [24]: 2.4 µM
TGI [24]: 7.58 µM
GI50 [25]: 3.04 µM
TGI [25]: > 100 µM
GI50 [26]: 2.8 µM
TGI [26]: > 100 µM
GI50 [27]: 2.23 µM
TGI [27]: > 100 µM
GI50 [28]: 3.02 µM
TGI [28]: > 100 µM
GI50 [29]: 3.14 µM
TGI [29]: > 100 µM
GI50 [30]: 4.57 µM
TGI [30]: > 100 µM
GI50 [31]: 2.59 µM
TGI [31]: > 100 µM
GI50 [32]: 3.34 µM
TGI [32]: > 100 µM
GI50 [33]: 3.29 µM
TGI [33]: > 100 µM
GI50 [34]: 3.4 µM
TGI [34]: > 100 µM

COc1cc2c3c(n(CCCN(C)C)c(=O)c2cc1OC)-c1cc2c(cc1C3=O)OCO2
GI50 [1]: 0.422 µM
TGI [1]: 1.93 µM
GI50 [35]: 0.0662 µM
TGI [35]: 1.58 µM
GI50 [36]: 0.0387 µM
TGI [36]: 1.65 µM
GI50 [2]: 0.144 µM
TGI [2]: 1.69 µM
GI50 [37]: 3.45 µM
TGI [37]: 13.1 µM
GI50 [3]: 0.467 µM
TGI [3]: 2.88 µM
GI50 [38]: 2.48 µM
TGI [38]: > 100 µM
GI50 [4]: 0.22 µM
TGI [4]: 1.87 µM
GI50 [5]: 0.0182 µM
TGI [5]: 0.421 µM
GI50 [6]: 0.146 µM
TGI [6]: 1.14 µM
GI50 [7]: 0.165 µM
TGI [7]: 1.59 µM
GI50 [8]: 0.127 µM
TGI [8]: 4 µM
GI50 [39]: 0.163 µM
TGI [39]: 1.98 µM
GI50 [9]: 0.0799 µM
TGI [9]: 0.583 µM
GI50 [40]: 0.0702 µM
TGI [40]: 1.78 µM
GI50 [41]: 1.04 µM
TGI [41]: 2.38 µM
GI50 [42]: 1.84 µM
TGI [42]: 10.6 µM
GI50 [10]: 0.805 µM
TGI [10]: 4.74 µM
GI50 [43]: 1.01 µM
TGI [43]: 3.33 µM
GI50 [44]: 0.944 µM
TGI [44]: 11.7 µM
GI50 [11]: 0.331 µM
GI50 [45]: 0.926 µM
TGI [45]: 2.26 µM
GI50 [46]: 0.65 µM
TGI [46]: 2.13 µM
GI50 [12]: 0.935 µM
TGI [12]: 2.75 µM
GI50 [47]: 1.4 µM
TGI [47]: 5.88 µM
GI50 [48]: 0.972 µM
TGI [48]: 2.76 µM
GI50 [14]: 1.11 µM
TGI [14]: 5.59 µM
GI50 [15]: 0.436 µM
TGI [15]: 2.09 µM
GI50 [49]: < 0.01 µM
TGI [49]: 3.4 µM
GI50 [50]: 1.2 µM
TGI [50]: 2.44 µM
GI50 [16]: 9.92 µM
TGI [16]: 33.4 µM
GI50 [17]: 1.18 µM
TGI [17]: 2.84 µM
GI50 [18]: 0.678 µM
TGI [18]: 2.68 µM
GI50 [19]: 0.432 µM
TGI [19]: 3.04 µM
GI50 [20]: 0.554 µM
TGI [20]: 6.12 µM
GI50 [21]: 0.182 µM
TGI [21]: 1.19 µM
GI50 [22]: 0.496 µM
TGI [22]: 3.94 µM
GI50 [23]: < 0.0357 µM
GI50 [51]: 1.33 µM
TGI [51]: 2.91 µM
GI50 [52]: 0.368 µM
TGI [52]: 1.77 µM
GI50 [24]: 2.3 µM
TGI [24]: 5.93 µM
GI50 [25]: 0.281 µM
TGI [25]: 3.37 µM
GI50 [26]: < 0.01 µM
TGI [26]: 0.403 µM
GI50 [27]: 0.515 µM
TGI [27]: 2.29 µM
GI50 [53]: 1.46 µM
TGI [53]: 3.39 µM
GI50 [28]: 1.29 µM
TGI [28]: 4.33 µM
GI50 [29]: 0.162 µM
TGI [29]: 1.31 µM
GI50 [30]: 1.48 µM
TGI [30]: 3.26 µM
GI50 [54]: < 0.01 µM
TGI [54]: 0.112 µM
GI50 [32]: 1.4 µM
TGI [32]: 3.44 µM
GI50 [33]: 0.0678 µM
TGI [33]: 0.564 µM
TGI [34]: 1.9 µM
